In patent US12012440B2, “Compositions and methods for treatment of fungal infections” (priority 2020, dated 2024):
Bridge positions count the residues as written; N and C are the ends. Ends that are not written are not given here.

What was measured:
C. albicans SC5314 [1] = test: Murine in vivo model of disseminated candidiasis: survival and body weight; settings: for survival of treated mice compared to saline controls, log-rank P: observed 26 days p.i.; for survival of treated mice compared to saline controls, log-rank P / survival efficacy compared with 5 mg/kg fluconazole: FIG. 9; for survival efficacy: 30 days p.i.; for survival as efficacy metric compared with Cyclic Peptide 5: candidemia model, FIGS. 10 to 15; for survival by end point analysis compared with fluconazole: χ^2 analysis at day 30 p.i.; for survival efficacy compared with 5 mg/kg fluconazole: 0.25 mg/kg Cyclic Peptide 5, 5 mg/kg RTD-1
Procedure: Mice were infected i.v. at T=0 with 3×10^5 blastospores of C. albicans genetically defined reference strain SC5314.
Mice were infected i.v. at T=0 with 3×10^5 blastospores of C. albicans SC5314. At T=24 h, mice were treated i.p. daily for 7 d w.
In activity studies the synthetic cyclic tetradecapeptide Cyclic Peptide 5 (SEQ ID NO. 6), which was identified initially as having significant antifungal activity, was used as a model peptide. Briefly, 7-8 week old, immunocompetent, female BALB/c mice were challenged i.v. at T=0 with 3×10^5 CFU of C. albicans SC5314. […]
Under these test protocols C. albicans-infected mice treated with saline presented with ruffled fur and significant weight loss, and became moribund within 5-10 days, by which time there was >30% body weight loss.

C. albicans SC5314 [2] = test: Renal fungal burden in kidney homogenates, murine disseminated candidiasis model; type: in vivo; settings: FIG. 16; for renal fungal burden compared with fluconazole / renal fungal burden compared with fluconazole, P (Fisher's LSD test): long term survivors 30 days p.i.
Text: In activity studies the synthetic cyclic tetradecapeptide Cyclic Peptide 5 (SEQ ID NO. 6), which was identified initially as having significant antifungal activity, was used as a model peptide. Briefly, 7-8 week old, immunocompetent, female BALB/c mice were challenged i.v. at T=0 with 3×10^5 CFU of C. albicans SC5314.

[3] = tested on: susceptible and multiple drug resistant strains of C. albicans; settings: long term, on treatment with RTD-1; cited from earlier work
C. albicans = settings: cited from earlier work
[4] = 5 mg/kg i.p. daily for 7 d from T=24 h

CC[C@H](C)C[C@H](C)CCCCCCCCC(=O)N[C@H]1C[C@@H](O)[C@@H](NCCN)NC(=O)[C@@H]2[C@@H](O)CCN2C(=O)[C@H]([C@H](O)CCN)NC(=O)[C@H]([C@H](O)[C@@H](O)c2ccc(O)cc2)NC(=O)[C@@H]2C[C@@H](O)CN2C(=O)[C@H]([C@@H](C)O)NC1=O [Caspofungin, caspofungin, reference compound]
survival of treated mice compared to saline controls, log-rank P (C. albicans SC5314 [1]; [4]): 3.4×10^−6

OC(Cn1cncn1)(Cn1cncn1)c1ccc(F)cc1F [Fluconazole, fluconazole, reference compound]
renal fungal burden (C. albicans SC5314 [2]; 5 mg/kg, long term survivors 30 days p.i. vs moribund saline controls): reduced fungal burden
survival of treated mice compared to saline controls, log-rank P (C. albicans SC5314 [1]; [4]): 3.4×10^−6

Cyclic Peptide 1: synthetic cyclic tetradecapeptide θ-defensin analog; positions 3-14,1,2: C S C R R R F C L C R R G V (GVCSCRRRFCLCRR; cyclic backbone; Cyclic Peptide 1)
renal fungal burden compared with fluconazole (C. albicans SC5314 [2]): reduced fungal burden to a greater extent than fluconazole
renal fungal burden compared with fluconazole, P (Fisher's LSD test) (C. albicans SC5314 [2]): 3.5×10^−5
survival efficacy (C. albicans SC5314 [1]; 0.1 mg/kg i.p. daily for 7 d): effective
survival efficacy (C. albicans SC5314 [1]; 0.25 mg/kg i.p. daily for 7 d): effective
survival as efficacy metric compared with Cyclic Peptide 5 (C. albicans SC5314 [1]): equivalent or superior to Cyclic Peptide 5
survival by end point analysis compared with fluconazole (C. albicans SC5314 [1]): more effective than fluconazole

Cyclic Peptide 2: synthetic cyclic tetradecapeptide θ-defensin analog; positions 3-14,1,2: C S C R R R F C I C R R G V (cyclo(GVCSCRRRFCICRR); disulfide 5-10, 3-12)
survival as efficacy metric compared with Cyclic Peptide 5 (C. albicans SC5314 [1]): equivalent or superior to Cyclic Peptide 5

Cyclic Peptide 3: synthetic cyclic tetradecapeptide θ-defensin analog; positions 3-14,1,2: C I C R R R V C I C R R G V (GVCICRRRVCICRR; cyclic backbone; Cyclic Peptide 3)
renal fungal burden compared with fluconazole (C. albicans SC5314 [2]): reduced fungal burden to a greater extent than fluconazole
renal fungal burden compared with fluconazole, P (Fisher's LSD test) (C. albicans SC5314 [2]): 7.4×10^−3
survival efficacy (C. albicans SC5314 [1]; 0.1 mg/kg i.p. daily for 7 d): effective
survival as efficacy metric compared with Cyclic Peptide 5 (C. albicans SC5314 [1]): equivalent or superior to Cyclic Peptide 5
survival by end point analysis compared with fluconazole (C. albicans SC5314 [1]): more effective than fluconazole

Cyclic Peptide 4: synthetic cyclic tetradecapeptide θ-defensin analog; positions 3-14,1,2: C I C R R R A C L C R R G L (GLCICRRRACLCRR; cyclic backbone; Cyclic Peptide 4)
renal fungal burden compared with fluconazole (C. albicans SC5314 [2]): reduced fungal burden to a greater extent than fluconazole
renal fungal burden compared with fluconazole, P (Fisher's LSD test) (C. albicans SC5314 [2]): 0.02
survival efficacy (C. albicans SC5314 [1]; 0.25 mg/kg i.p. daily for 7 d): effective
survival as efficacy metric compared with Cyclic Peptide 5 (C. albicans SC5314 [1]): equivalent or superior to Cyclic Peptide 5
survival by end point analysis compared with fluconazole (C. albicans SC5314 [1]): more effective than fluconazole

Cyclic Peptide 5: model synthetic cyclic tetradecapeptide θ-defensin analog; positions 3-14,1,2: C I C R R R F C L C R R G V (GVCICRRRFCLCRR; cyclic backbone; Cyclic Peptide 5)
renal fungal burden compared with fluconazole (C. albicans SC5314 [2]): reduced fungal burden to a greater extent than fluconazole
renal fungal burden compared with fluconazole, P (Fisher's LSD test) (C. albicans SC5314 [2]): 3×10^−3
survival efficacy compared with 5 mg/kg fluconazole (C. albicans SC5314 [1]): more effective than 5 mg/kg of fluconazole
survival efficacy compared with RTD-1 (C. albicans SC5314 [1]; 0.25 mg/kg Cyclic Peptide 5 vs 5 mg/kg RTD-1, i.p. once a day for 7 days, BALB/c mice): more effective than 5 mg/kg of RTD-1
survival of treated mice compared to saline controls, log-rank P (C. albicans SC5314 [1]; 0.25 mg/kg i.p. daily for 7 d from T=24 h): 2.3×10^−7
survival efficacy (FIG. 10) (C. albicans SC5314 [1]; 0.25 mg/kg or 0.1 mg/kg, results similar to treatment with saline): relatively ineffective

Cyclic Peptide 6: synthetic cyclic tetradecapeptide θ-defensin analog; positions 3-14,1,2: C R C R R G V C R C R R G V (GVCRCRRGVCRCRR; not fully specified (bridges); ends and bridges not checked; also: cyclic (type not given here))
survival as efficacy metric compared with Cyclic Peptide 5 (C. albicans SC5314 [1]): equivalent or superior to Cyclic Peptide 5
survival compared with fluconazole and Cyclic Peptide 5 (C. albicans SC5314 [1]; peptides at 0.25 mg/kg, FIG. 15): survival that exceeded that of both a prior art antifungal drug (fluconazole) and Circular Peptide 5
survival by end point analysis compared with fluconazole (C. albicans SC5314 [1]): more effective than fluconazole

RTD-1: naturally occurring θ-defensin of rhesus monkeys, cyclic octadecapeptide with 3 disulfide bonds (cyclo(GFCRCLCRRGVCRCICTR); disulfide (positions not given here); not fully specified (bridges); also: three disulfide bonds, pairing not given here; listed as Macaca mulatta)
pro-inflammatory cytokine production in vivo [3]: reduction in long term production of pro-inflammatory cytokines
in vitro antifungal activity in presence of serum (C. albicans; presence of serum): abolished by the presence of serum
in vitro active concentration relative to concentrations effective in vivo (C. albicans; vs murine animal model studies): ≥ 50 fold
survival efficacy compared with 5 mg/kg fluconazole (C. albicans SC5314 [1]): more effective than 5 mg/kg of fluconazole
survival of treated mice compared to saline controls, log-rank P (C. albicans SC5314 [1]; [4]): 3.4×10^−6
